Assay: Inhibition of Influenza A virus (A/California/04/2009 (H1N1-H274Y)) Neuraminidase using MUNANA as substrate preincubated for 5 to 15 mins followed by substrate addition and measured after 30 mins by fluorescence spectrophotometric method

| SMILES | IC50 [nM] |
| --- | --- |
| CCC(CC)O[C@@H]1C=C(C(=O)O)C[C@H](NC(N)=O)[C@H]1NC(C)=O | 667 |
| CCC(CC)O[C@@H]1C=C(C(=O)O)C[C@H](N)[C@H]1NC(C)=O [OSELTAMIVIR CARBOXYLATE] | 4070 |

— ChEMBL document CHEMBL4680272 (Eur J Med Chem, 2020)
